Measured values taken from PubChem BioAssay AID179 (DTP/NCI, 2004).
“And” between values parts separate entries of the source, which are not always exact repeats. Identical values can stand only once. The source made the active and inactive calls.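 How the source made its calls: active means compounds giving half or more protection of infected cells from virus-caused growth loss, again on retest; inactive means the rest.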

Tested on: CEM cells HIV-1 protection, formazan growth assay
Experiment: NCI AIDS Antiviral Assay
Conditions: for IC50: measured here: growth of uninfected CEM cells
Procedure, shortened: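 Five concentrations of each compound were applied to infected and uninfected human CEM cells. Protection from HIV-1 was judged from growth measured with a soluble formazan assay.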

| SMILES | EC50 | IC50 | outcome |
| --- | --- | --- | --- |
| COC1N(C2CC(N=[N+]=[N-])C(CO)O2)C(=O)NC(=O)C1(C)Br (stereo not drawn) | 0.00479 µM and 0.00263 µM and 0.0049 µM | 40.7 µM and 38.9 µM and 16.2 µM |  |
| Cc1c2ccccc2nc(CS(C)(=O)=O)[n+]1[O-] | > 200 µM | > 200 µM |  |
| COc1ccc(C)cc1C(=C=C=C=C(c1cc(C)ccc1OC)c1ccccc1OCc1ccccc1)c1ccccc1OCc1ccccc1 | > 44.7 µM | 36.3 µM |  |
| CN(C)c1ccc(/C=C(\NC(=O)c2ccccc2)C(=O)NC(CCC(=O)O)C(=O)O)cc1 (stereo not drawn) | > 50.1 µM | 34.7 µM |  |
| CC(=O)C(N=Nc1ccc(S(=O)(=O)Nc2ccccn2)cc1)C(=O)Nc1ccccc1C (stereo not drawn) | > 200 µM | 4.57 µM |  |
| CCOC(=O)c1ccc(C(=O)/C(C(C)=O)=C2\CCCN2C)n1C | 89.1 µM | 174 µM |  |
| COC(=O)/C=C(/C(=O)OC)c1c(C)cc2c(C)cc(C)cc(C)c1-2 | > 200 µM | 10.7 µM |  |
| Cc1ccc(OCC2OC(n3cnc4nc(Nc5ccc(Cl)c(Cl)c5)nc(Cl)c43)CC2Oc2ccc(C)cc2)cc1 (stereo not drawn) | > 100 µM | > 100 µM |  |
| COI1NC(=O)c2ccccc21 | 17.4 µM | 295 µM |  |
| Cn1c(O)c(N=NC(=S)NC(=O)C23CC4CC(CC(C4)C2)C3)c2ccccc21 |  |  | inactive |
| O=c1[nH]c2nc3ccccc3c(=O)n2/c1=C/c1ccccc1 | > 200 µM | 9.12 µM |  |
| COc1ccccc1-n1c(=S)n(-c2ccccc2C)c2nc3ccccc3nc1/c2=N\Nc1ccccn1 | > 200 µM | > 200 µM |  |
| Cc1cc(O)c(C(C)C)cc1C1(c2cc(C(C)C)c(O)cc2C)OS(=O)(=O)c2ccccc21 |  |  | inactive |
| COc1ccc2c(c1)OCCCN(C)OC2c1ccccc1 (stereo not drawn) |  |  | inactive |
| CC1(C)NC(=O)C2(CC(O)C(O)C(OC(=O)c3ccccc3)C2)O1 (stereo not drawn) | > 263 µM | > 263 µM |  |
| NCc1c(C(N)=O)ncn1Cc1ccccc1 |  |  | inactive |
| COC1CC(OC)C(O)C(CO)O1 (stereo not drawn) |  |  | inactive |
| COCn1c2ccc(OC(C)=O)cc2c2c(=O)oc(N(C)C)nc21 | > 200 µM | > 200 µM |  |
| COc1ccc(-c2cc(C3CC3)nc(SCC(=O)O)c2C#N)cc1 | > 200 µM | 39.8 µM |  |
| CCc1cccc(C(C)CC)c1NC(=O)CC1C(=O)Nc2ccccc2S1=O (stereo not drawn) | > 46.8 µM | > 46.8 µM |  |
| COC(=O)c1ccccc1C1CN=NC12Cc1c(C)ccc(C)c1C2=O (stereo not drawn) | > 200 µM | 155 µM |  |
| O=C1c2cccc3cccc(c23)C(=O)N1CCO | > 200 µM | 13.8 µM |  |
| O=S1(=O)CS(=O)(=O)OCCCCO1 | > 1070 µM | 63.1 µM |  |
| C=CC1CC[N-]CC1.[Cl][Cu][Cl] |  |  | inactive |

| SMILES | EC50 | IC50 | outcome |
| --- | --- | --- | --- |
| CCCCCC#COC1CC(C)CC[C@@H]1C(C)C (stereo partly drawn) | > 200 µM | 110 µM |  |
| S=C(SSC(=S)N1CCCCC1)N1CCCCC1 | > 200 µM | 29.5 µM |  |
| COC(=O)C1[C@@H](C(=O)OC)C12C=Cc1ccccc1C=C2 (stereo partly drawn) | > 200 µM | > 200 µM |  |
| CCCCCCCCCCCCCCCCCC(=O)OCC(O)CO (stereo not drawn) | > 2.09 µM | > 2.09 µM |  |
| Cc1cc(S(=O)(=O)Nc2n[nH]c(N)n2)c(SCC(=O)O)cc1Cl | > 200 µM | > 200 µM |  |
| O=c1[nH]c2cc3c(cc2n2cccc12)oc1ccccc13 | > 200 µM | > 200 µM |  |
| O=C(O)[C@@H](NS(=O)(=O)c1ccc([N+](=O)[O-])cc1)c1ccccc1 |  |  | inactive |
| O=C1CCCc2ccc3c(c21)CC1(Cc2ccccc2C1)C3 | > 200 µM | 25.1 µM |  |
| O=C(O)c1cc2ccc(Cl)cc2c(O)c1C1=CCCCC1 | > 166 µM | 33.9 µM |  |
| O=C(ON(Cc1ccccc1)C(=O)C1C=CC=C1)C1=CCC=C1 | > 17 µM | > 17 µM |  |
| Cc1cc(C)c(N)c(CO)c1 | > 200 µM | > 200 µM and 107 µM |  |
| CCCCOC(=O)c1ccc(N)cc1 | > 200 µM |  |  |
| CCc1nnc2sc(=S)[nH]n12 |  |  | inactive |
| CN(CCO)CCCC1COc2ccccc2O1 (stereo not drawn) | > 200 µM | > 200 µM |  |
| CC(C)=C[C@@H]1C[C@H](C)c2c(O)cc(C)c3c2C1=C(C)C(=O)C3=O | > 200 µM | 22.4 µM |  |
| CN1C(=O)C(CCO)(C(C)(C)C)c2ccccc21 (stereo not drawn) | > 200 µM | > 200 µM |  |
| N=c1oc2ccc([N+](=O)[O-])cc2cc1C(=O)NCc1ccccc1 | > 200 µM | 14.1 µM |  |
| C[CH2][Sn]1([CH2]C)[O]C2C(O)OC(CO)C(O)C2[O]1 (stereo not drawn) | > 200 µM | 3.16 µM |  |
| O=C(CCc1nc(=S)[nH][nH]1)Nc1cc(Cl)c(Cl)cc1Cl | > 195 µM | > 195 µM |  |
| COc1ccc(C(=O)Nc2ccc(S(=O)(=O)NCC(=O)O)cc2)cc1 |  |  | inactive |
| C=C1CN(S(=O)(=O)c2ccc(C)cc2)CCCN(CC2CC2)CCCN(S(=O)(=O)c2ccc(C)cc2)C1 | > 200 µM | 4.27 µM |  |
| C/C=C\C(O)C#Cc1cnc(OC)nc1OC (stereo not drawn) | > 200 µM | 42.7 µM |  |
| CN1NC(=O)SC(=O)c2ccccc2C1=O |  |  | inactive |
